Assay results reported in ChEMBL document CHEMBL6153150, “Design, Synthesis, and Biological Evaluation of Chiral-Proline Derivatives as Novel HSP90 Inhibitors” (ACS Med Chem Lett, 2025).
Blank lines part the entries; values can stand above or below the compound they belong to. Calls of active or inactive are those of the source. The rule behind the calls is not given here.

Tests used:
Heat shock protein HSP90 [1] = molecular target: T1, Heat shock protein HSP90 (Homo sapiens, UniProt P07900+P08238); test: Binding affinity to Hsp90 (unknown origin) assessed as dissociation constant incubated for 30 mins by fluorescence spectrophotometric analysis; type: protein assay
Heat shock protein HSP90 [2] = molecular target: T1, Heat shock protein HSP90; test: Inhibition of Hsp90 (unknown origin) ATPase activity assessed as decrease in absorbance using PEP as substrate in presence of ATP and NADH by absorbance based assay; type: protein assay
Endoplasmin [3] = molecular target: T2, Endoplasmin (Homo sapiens, UniProt P14625); test: Inhibition of GRP94 (unknown origin) incubated for 12 to 16 hrs by FP competition assay
HCT-116 = test: Antiproliferative activity against human HCT-116 cells assessed as cell viability inhibition rate incubated for 72 hr by MTT assay; type: functional, cell-based; settings: HCT-116, 72 h
MCF7 = test: Antiproliferative activity against human MCF7 cells assessed as cell viability inhibition rate incubated for 72 hr by MTT assay; type: functional, cell-based; settings: MCF7, 72 h
SK-BR-3 = test: Antiproliferative activity against human SK-BR-3 cells assessed as cell viability inhibition rate incubated for 72 hr by MTT assay; type: functional, cell-based; settings: SK-BR-3, 72 h
K562 = test: Antiproliferative activity against human K562 cells assessed as cell viability inhibition rate incubated for 72 hr by MTT assay; type: functional, cell-based; settings: K562, 72 h
A549 = test: Antiproliferative activity against human A549 cells assessed as cell viability inhibition rate incubated for 72 hr by MTT assay; type: functional, cell-based; settings: A549, 72 h
[4] = molecular target: T3, Heat shock protein HSP 90-alpha (Homo sapiens, UniProt P07900); test: Inhibition of HSP90alpha (unknown origin) incubated for 12 to 16 hrs by FP competition assay
[5] = Selectivity ratio of IC50 for inhibition of GRP94 (unknown origin) to IC50 for inhibition of HSP90alpha (unknown origin)
[6] = Tmax in rat plasma at 50 mg/kg, po and measured upto 24 hr by LC-MS/MS analysis; type: ADME, organism-based
[7] = Cmax in rat plasma at 50 mg/kg, po and measured upto 24 hr by LC-MS/MS analysis; type: ADME, organism-based
[8] = AUC in rat plasma at 50 mg/kg, po and measured upto 24 hr by LC-MS/MS analysis; type: ADME, organism-based
[9] = Half life in rat plasma at 50 mg/kg, po and measured upto 24 hr by LC-MS/MS analysis; type: ADME, organism-based
[10] = Clearance in rat plasma at 50 mg/kg, po and measured upto 24 hr by LC-MS/MS analysis; type: ADME, organism-based
[11] = Oral bioavailability in rat at 50 mg/kg and measured upto 24 hr by LC-MS/MS analysis; type: ADME, organism-based; settings: in vivo
[12] = molecular target: T3, Heat shock protein HSP 90-alpha; test: Binding affinity to Hsp90alpha (unknown origin) assessed as dissociation constant
Endoplasmin [13] = molecular target: T2, Endoplasmin; test: Binding affinity to GRP94 (unknown origin) assessed as dissociation constant

T2 sequence (P14625 whole entry): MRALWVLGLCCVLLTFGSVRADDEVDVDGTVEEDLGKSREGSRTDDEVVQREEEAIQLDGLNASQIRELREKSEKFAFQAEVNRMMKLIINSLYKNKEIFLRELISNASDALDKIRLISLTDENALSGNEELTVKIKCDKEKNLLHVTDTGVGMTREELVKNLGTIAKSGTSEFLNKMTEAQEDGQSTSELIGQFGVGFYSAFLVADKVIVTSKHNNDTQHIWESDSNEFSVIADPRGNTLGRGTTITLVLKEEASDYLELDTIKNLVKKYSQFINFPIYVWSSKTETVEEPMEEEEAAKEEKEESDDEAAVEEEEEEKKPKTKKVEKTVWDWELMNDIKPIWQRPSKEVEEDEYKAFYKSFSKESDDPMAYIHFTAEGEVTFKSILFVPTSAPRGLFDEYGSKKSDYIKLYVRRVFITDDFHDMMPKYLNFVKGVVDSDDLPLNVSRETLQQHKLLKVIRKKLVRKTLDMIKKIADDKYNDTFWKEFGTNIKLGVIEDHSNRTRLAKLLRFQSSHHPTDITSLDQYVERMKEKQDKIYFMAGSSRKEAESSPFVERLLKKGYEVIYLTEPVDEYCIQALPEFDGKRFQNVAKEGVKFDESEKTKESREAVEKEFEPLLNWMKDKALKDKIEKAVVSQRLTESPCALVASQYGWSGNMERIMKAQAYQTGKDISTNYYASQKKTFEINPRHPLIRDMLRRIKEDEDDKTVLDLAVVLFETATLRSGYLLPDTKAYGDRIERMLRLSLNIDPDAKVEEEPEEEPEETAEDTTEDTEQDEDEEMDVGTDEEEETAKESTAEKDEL

Kd (Heat shock protein HSP90 [1]): 532 nM
IC50 (Heat shock protein HSP90 [2]): 6940 nM
Structure (SMILES): O=C(c1ccccc1O)N1Cc2ccccc2C1

Kd (Heat shock protein HSP90 [1]): 27 nM
IC50 (Heat shock protein HSP90 [2]): 310 nM
Structure (SMILES): CC(C)N(Cc1cccnc1)C(=O)[C@H]1CCCN1C(=O)c1cc(C2CC2)c(O)cc1O

Structure (SMILES): CC(C)c1cc(C(=O)N2C[C@@H](c3ccccc3)C[C@@H]2C(=O)NCCCN2CCOCC2)c(O)cc1O
Kd (Heat shock protein HSP90 [1]): 87 nM
IC50 (Endoplasmin [3]): 773 nM
IC50 (HCT-116): 206 nM
IC50 (MCF7): 61 nM
IC50 (SK-BR-3): 210 nM
IC50 (K562): 433 nM
IC50 (A549): 28 nM
IC50 [4]: 154 nM
Ratio IC50 [5]: 5.02
Tmax [6]: 0.733 h
Cmax [7]: 65.7 µg/mL
AUC at 24 h [8]: 186 µg·h/mL
half-life [9]: 5.8 h
CL/F [10]: 1.46 mL/min/kg
bioavailability [11]: 5.5%

Kd (Heat shock protein HSP90 [1]): 20 nM
IC50 (Heat shock protein HSP90 [2]): 270 nM
Structure (SMILES): CC(C)NC(=O)Oc1ccc2c(c1)CN(C(=O)c1cc(C3CC3)c(O)cc1O)C2

Activity (Heat shock protein HSP90 [1]): inactive
inhibition (Heat shock protein HSP90 [2]): inactive
Structure (SMILES): CCN1CCN(C(=O)[C@H]2C[C@H](c3ccccc3)CN2C(=O)c2cc(C(C)C)c(O)cc2O)CC1

Structure (SMILES): CC(C)c1cc(C(=O)N2Cc3ccc(CN4CCN(C)CC4)cc3C2)c(O)cc1O [ONALESPIB]
Kd (Heat shock protein HSP90 [1]): 27 nM
IC50 (Endoplasmin [3]): 30 nM
Kd [12]: 50 nM
Kd (Endoplasmin [13]): 30 nM
IC50 (HCT-116): 102 nM
IC50 (MCF7): 53 nM
IC50 (SK-BR-3): 197 nM
IC50 (K562): 465 nM
IC50 (A549): 131 nM
IC50 [4]: 50 nM
Ratio IC50 [5]: 0.6

Structure (SMILES): CC(C)c1cc(C(=O)N2C[C@@H](c3ccccc3)C[C@@H]2C(=O)NCc2ccccc2)c(O)cc1O
Kd (Heat shock protein HSP90 [1]): 87 nM
IC50 (HCT-116): 303 nM
IC50 (MCF7): 61 nM
IC50 (SK-BR-3): 267 nM
IC50 (K562): 471 nM
IC50 (A549): 39 nM

Structure (SMILES): O=C(NCc1ccccc1Cl)[C@H]1C[C@H](c2ccccc2)CN1C(=O)c1cc(C2CC2)c(O)cc1O
Kd (Heat shock protein HSP90 [1]): 236 nM
IC50 (HCT-116): 301 nM
IC50 (MCF7): 76 nM
IC50 (SK-BR-3): 331 nM
IC50 (K562): 457 nM
IC50 (A549): 42 nM

Structure (SMILES): CC(C)c1cc(C(=O)N2C[C@@H](c3ccccc3)C[C@@H]2C(=O)NC(C)C(C)C)c(O)cc1O (stereo not given in full)
Kd (Heat shock protein HSP90 [1]): 345 nM
IC50 (HCT-116): 637 nM
IC50 (MCF7): 185 nM
IC50 (SK-BR-3): 738 nM
IC50 (K562): 566 nM
IC50 (A549): 130 nM

Structure (SMILES): CC(C)CNC(=O)[C@H]1C[C@H](c2ccccc2)CN1C(=O)c1cc(C(C)C)c(O)cc1O
Kd (Heat shock protein HSP90 [1]): 165 nM
IC50 (HCT-116): 435 nM
IC50 (MCF7): 87 nM
IC50 (SK-BR-3): 653 nM
IC50 (K562): 539 nM
IC50 (A549): 63 nM

Structure (SMILES): CC(C)c1cc(C(=O)N2C[C@@H](c3ccccc3)C[C@@H]2C(=O)NCCc2ccccc2)c(O)cc1O
Kd (Heat shock protein HSP90 [1]): 32 nM
IC50 (Endoplasmin [3]): 304 nM
IC50 (HCT-116): 271 nM
IC50 (MCF7): 54 nM
IC50 (SK-BR-3): 371 nM
IC50 (K562): 623 nM
IC50 (A549): 45 nM
IC50 [4]: 137 nM
Ratio IC50 [5]: 2.22

Structure (SMILES): CC(NC(=O)[C@H]1C[C@H](c2ccccc2)CN1C(=O)c1cc(C2CC2)c(O)cc1O)c1ccccc1 (stereo not given in full)
Kd (Heat shock protein HSP90 [1]): 201 nM
IC50 (HCT-116): 631 nM
IC50 (MCF7): 101 nM
IC50 (SK-BR-3): 633 nM
IC50 (K562): 702 nM
IC50 (A549): 107 nM

Structure (SMILES): COc1ccc(C(C)NC(=O)[C@H]2C[C@H](c3ccccc3)CN2C(=O)c2cc(C(C)C)c(O)cc2O)cc1 (stereo not given in full)
Kd (Heat shock protein HSP90 [1]): 463 nM
IC50 (HCT-116): 652 nM
IC50 (MCF7): 170 nM
IC50 (SK-BR-3): 721 nM
IC50 (K562): 533 nM
IC50 (A549): 172 nM

Structure (SMILES): COc1ccc(CNC(=O)[C@H]2C[C@H](c3ccccc3)CN2C(=O)c2cc(C3CC3)c(O)cc2O)cc1
Kd (Heat shock protein HSP90 [1]): 168 nM
IC50 (HCT-116): 631 nM
IC50 (MCF7): 167 nM
IC50 (SK-BR-3): 631 nM
IC50 (K562): 561 nM
IC50 (A549): 113 nM

Structure (SMILES): CC(C)C(C)NC(=O)[C@H]1C[C@H](c2ccccc2)CN1C(=O)c1cc(C2CC2)c(O)cc1O (stereo not given in full)
Kd (Heat shock protein HSP90 [1]): 345 nM
IC50 (HCT-116): 507 nM
IC50 (MCF7): 204 nM
IC50 (SK-BR-3): 787 nM
IC50 (K562): 631 nM
IC50 (A549): 105 nM

Structure (SMILES): CC(C)c1cc(C(=O)N2C[C@@H](c3ccccc3)C[C@@H]2C(=O)NC(C)c2ccccc2)c(O)cc1O (stereo not given in full)
Kd (Heat shock protein HSP90 [1]): 232 nM
IC50 (HCT-116): 514 nM
IC50 (MCF7): 113 nM
IC50 (SK-BR-3): 703 nM
IC50 (K562): 621 nM
IC50 (A549): 87 nM

Activity (Heat shock protein HSP90 [1]): inactive
inhibition (Heat shock protein HSP90 [2]): inactive
Structure (SMILES): CCCCN(CCCC)C(=O)[C@H]1C[C@H](c2ccccc2)CN1C(=O)c1cc(C(C)C)c(O)cc1O

Activity (Heat shock protein HSP90 [1]): inactive
inhibition (Heat shock protein HSP90 [2]): inactive
Structure (SMILES): CCN1CCCC1CNC(=O)[C@H]1C[C@H](c2ccccc2)CN1C(=O)c1cc(C(C)C)c(O)cc1O (stereo not given in full)

Structure (SMILES): COc1ccc(C(C)NC(=O)[C@H]2C[C@H](c3ccccc3)CN2C(=O)c2cc(C3CC3)c(O)cc2O)cc1 (stereo not given in full)
Kd (Heat shock protein HSP90 [1]): 263 nM
IC50 (HCT-116): 641 nM
IC50 (MCF7): 126 nM
IC50 (SK-BR-3): 451 nM
IC50 (K562): 667 nM
IC50 (A549): 82 nM

Activity (Heat shock protein HSP90 [1]): inactive
inhibition (Heat shock protein HSP90 [2]): inactive
Structure (SMILES): CC(C)c1cc(C(=O)N2C[C@@H](c3ccccc3)C[C@@H]2C(=O)NCC(=O)N2CCCCC2)c(O)cc1O

Kd (Heat shock protein HSP90 [1]): 136 nM
IC50 (Heat shock protein HSP90 [2]): 237 nM
Structure (SMILES): CC(C)N(Cc1cccnc1)C(=O)[C@H]1CCCN1C(=O)c1cc(C2CC2)c(OP(=O)(O)O)cc1O

Structure (SMILES): COc1ccc(CNC(=O)[C@H]2C[C@H](c3ccccc3)CN2C(=O)c2cc(C(C)C)c(O)cc2O)cc1
Kd (Heat shock protein HSP90 [1]): 147 nM
IC50 (HCT-116): 473 nM
IC50 (MCF7): 107 nM
IC50 (SK-BR-3): 732 nM
IC50 (K562): 541 nM
IC50 (A549): 103 nM

Structure (SMILES): O=C(NCCCN1CCOCC1)[C@H]1C[C@H](c2ccccc2)CN1C(=O)c1cc(C2CC2)c(O)cc1O
Kd (Heat shock protein HSP90 [1]): 68 nM
IC50 (Endoplasmin [3]): 203 nM
IC50 (HCT-116): 187 nM
IC50 (MCF7): 72 nM
IC50 (SK-BR-3): 105 nM
IC50 (K562): 403 nM
IC50 (A549): 31 nM
IC50 [4]: 136 nM
Ratio IC50 [5]: 1.49
Tmax [6]: 0.883 h
Cmax [7]: 76.5 µg/mL
AUC at 24 h [8]: 239 µg·h/mL
half-life [9]: 6.9 h
CL/F [10]: 1.75 mL/min/kg
bioavailability [11]: 7.1%

Structure (SMILES): CC(C)CNC(=O)[C@H]1C[C@H](c2ccccc2)CN1C(=O)c1cc(C2CC2)c(O)cc1O
Kd (Heat shock protein HSP90 [1]): 107 nM
IC50 (HCT-116): 403 nM
IC50 (MCF7): 93 nM
IC50 (SK-BR-3): 765 nM
IC50 (K562): 533 nM
IC50 (A549): 89 nM

Structure (SMILES): O=C(NCc1ccccc1F)[C@H]1C[C@H](c2ccccc2)CN1C(=O)c1cc(C2CC2)c(O)cc1O
Kd (Heat shock protein HSP90 [1]): 168 nM
IC50 (HCT-116): 291 nM
IC50 (MCF7): 86 nM
IC50 (SK-BR-3): 312 nM
IC50 (K562): 411 nM
IC50 (A549): 29 nM

Structure (SMILES): CC(C)c1cc(C(=O)N2C[C@@H](c3ccccc3)C[C@@H]2C(=O)NCc2ccccc2F)c(O)cc1O
Kd (Heat shock protein HSP90 [1]): 231 nM
IC50 (HCT-116): 376 nM
IC50 (MCF7): 87 nM
IC50 (SK-BR-3): 462 nM
IC50 (K562): 631 nM
IC50 (A549): 71 nM
